Legend:
olfactory receptor OR2L3 [1] = target: T1, olfactory receptor OR2L3 (Homo sapiens, UniProt Q8NG85); assay: Luciferase reporter gene assay: effect of suppressing the response of OR2L3 to unpleasant odor-causing substance; assay type: cell-based; conditions: for Effect of suppressing the response of OR2L3 to skatole: test substance mixed with skatole, ratio of Fold Increase value, FIGS. 6 to 9; for Effect of suppressing the response of OR2L3 to indole: test substance mixed with indole, FIGS. 10 to 12
T1 construct: N-terminal 20 amino acid residues of bovine rhodopsin (Rho tag); expressed in transfected cells; host or cells: HEK293T cells, transient lipofection with the pME18S expression vector, an RTP1S vector and the luciferase reporter vectors
T1 sequence (Q8NG85 1-312): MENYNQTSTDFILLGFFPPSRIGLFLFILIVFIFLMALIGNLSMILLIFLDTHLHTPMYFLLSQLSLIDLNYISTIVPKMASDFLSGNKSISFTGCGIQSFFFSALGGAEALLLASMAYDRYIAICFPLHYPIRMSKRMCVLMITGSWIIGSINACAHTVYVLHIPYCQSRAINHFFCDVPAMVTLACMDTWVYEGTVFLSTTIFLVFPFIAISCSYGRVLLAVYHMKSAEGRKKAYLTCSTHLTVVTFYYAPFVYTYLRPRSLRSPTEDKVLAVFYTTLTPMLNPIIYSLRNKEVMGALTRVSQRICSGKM
Experimental: (§1) 0.05 μg of the human olfactory receptor gene expression vector, 0.01 μg of an RTP1S vector, 0.01 μg of a firefly luciferase vector pGL4.29 containing a cAMP-responsive sequence promoter (Promega), and 0.005 μg of a Renilla luciferase vector pGL4.74 containing a thymidine kinase promoter (Promega) were dissolved in 10 μL of Opti-MEM I (gibco) to obtain a gene solution (for one well). 100 μL of HEK293T cells were seeded in each well of a 96-well plate (Biocoat manufactured by Corning) so as to reach confluency after 24 hours. According to the directions for use of Lipofectamine 3000, by the lipofection method, the gene solution was added to each well to perform gene transfer to cells, and culturing was performed under 5% carbon dioxide atmosphere at 37° C. for 24 hours.
After removing the culture medium, 50 μL of CD293 medium (gibco) (20 μM L-glutamine added) including measured concentration of an aroma compound as a sample was added to each well, and stimulation was performed for 3 hours. After that, the luciferase activity was measured according to the directions for use of Dual-Luciferase Reporter Assay System (Promega). The response strength of the olfactory receptor was expressed by the Fold Increase value, which is obtained by dividing the luciferase activity generated by stimulation of the aroma compound by the luciferase activity generated in the test system not including the aroma compound. […]
With respect to unpleasant odor masking agents (group of candidate substances) including Group A shown in Table 1, the effects of suppressing the response of OR2L3 that strongly responded to unpleasant odors were measured by means of luciferase reporter gene assay.
In luciferase reporter gene assay, skatole and Guava coeur (Ethyl 3-mercapto-2-methylbutyrate) were used by being mixed with a sample. The Fold Increase value in the test in which Guava coeur was not mixed was regarded as 1, and the ratio of the Fold Increase value in the test in which Guava coeur was mixed was obtained.
Guava coeur in the evaluation of the effect of suppressing the response of OR2L3 was replaced by Dextramber® (1-(2,2,6-trimethylcyclohexyl) hexan-3-ol, registered trademark), and the test was conducted in the same manner. […] Similarly, Guava coeur was replaced by Hindinol® (2-methyl-4-(2,2,3-trimethyl-3-cyclopentenyl)-2-buten-1-ol, registered trademark) and the test was conducted.
Regarding the unpleasant odor in the evaluation of the effect of suppressing the response of OR2L3, skatole was replaced by indole, and the test was conducted in the same manner. […]

skatole odor = assay: Sensory evaluation of unpleasant odor suppression ability (skatole), panel of 20 persons; assay type: in vivo, human; conditions: for Skatole strength: average rating of 20 persons, scale 0 to 10, unpleasant odor alone rated 8, 10 μL skatole diluted 100-fold plus 1 μL test substance, 1 hour at room temperature; for Effect of suppressing the unpleasant odors (in words): unpleasant odors = skatole or indole
Experimental: (§2) The unpleasant odor suppression ability of test substances having activity to inhibit receptor action was confirmed by sensory evaluation. A cotton ball on which 10 μL of skatole or indole diluted 100-fold with triethyl citrate as an unpleasant odor and 1 μL of a test substance were dropped was put into a plastic bottle (OZO-40 manufactured by Takemoto Yohki Co., Ltd.). The bottle was allowed to stand at room temperature for 1 hour to sufficiently volatilize odor molecules therein. The sensory evaluation test was conducted by a panel consisting of 20 persons, who made evaluation as follows: the odor strength in the case where the unpleasant odor was dropped solely was rated as 8, and the unpleasant odor strength in the case where the test substance was mixed was rated as from 0 (the unpleasant odor is not smelled) to 10 (the unpleasant odor is smelled very strongly). The average value was calculated from obtained numerical values.

indole odor = assay: Sensory evaluation of unpleasant odor suppression ability (indole), panel of 20 persons; assay type: in vivo, human; conditions: for Indole strength: average rating of 20 persons, scale 0 to 10, unpleasant odor alone rated 8, 10 μL indole diluted 100-fold plus 1 μL test substance, 1 hour at room temperature
Experimental: as §2

[2] = tested on: HEK293T cells in which OR2L3 was not expressed (Mock); assay: Mock test, luciferase reporter gene assay using cells in which OR2L3 was not expressed; assay type: cell-based, human
Experimental: as §1
(§3) After removing the culture medium, 50 μL of CD293 medium (gibco) (20 μM L-glutamine added) including measured concentration of an aroma compound as a sample was added to each well, and stimulation was performed for 3 hours. After that, the luciferase activity was measured according to the directions for use of Dual-Luciferase Reporter Assay System (Promega). The response strength of the olfactory receptor was expressed by the Fold Increase value, which is obtained by dividing the luciferase activity generated by stimulation of the aroma compound by the luciferase activity generated in the test system not including the aroma compound.
(§4) Responses of the olfactory receptor OR2L3 to skatole, indole, α-terpineol, 4-terpineol or p-methylacetophenone as a typical example of the unpleasant odor-causing substance were measured with various concentrations by means of luciferase reporter gene assay. […] Meanwhile, in the Mock test (using cells in which OR2L3 was not expressed), no response was shown. That is, it was shown that OR2L3 specifically responds to the respective unpleasant odor-causing substances.

olfactory receptor OR2L3 [3] = target: T1, olfactory receptor OR2L3; assay: Luciferase reporter gene assay: response of olfactory receptor OR2L3 to unpleasant odor-causing substance; assay type: cell-based; conditions: various concentrations; HEK293T cells expressing OR2L3; FIGS. 1 to 5
Experimental: A human olfactory receptor gene was obtained by cloning according to the PCR method using Human Genomic DNA: Female (Promega) based on the sequence information registered in GenBank. The N-terminal 20 amino acid residues of bovine rhodopsin were incorporated into a pME18S vector, and the obtained human olfactory receptor gene was further incorporated downstream thereof, thereby obtaining a human olfactory receptor gene expression vector.
as §1, §3, §4

For `CC/C=C\CCOC(=O)CCCCC` [cis-3-hexenyl hexanoate, reference compound], which “Effect of suppressing the response of OR2L3 to skatole” value (“Effect … to skatole” below) (olfactory receptor OR2L3 [1]) is on record?
Its value is “concentration-dependently reducing”.

How did the Skatole strength (skatole odor) turn out when `CCOC(=O)C(C)C(C)S` (stereo not shown) [Ethyl 3-mercapto-2-methylbutyrate] was run?
Its Skatole strength is 3.0.

And the “Effect of suppressing the unpleasant odors (in words)” value (“Effect … (in words)” for short) (skatole odor; sensory evaluation)?
The value was “suppress”.

What about the “Effect of suppressing the response of OR2L3 to indole” value (olfactory receptor OR2L3 [1]) of the same compound?
Its value is “concentration-dependently reducing”.

What about the “Effect … to skatole” value (olfactory receptor OR2L3 [1]) of the same compound?
Its value is “concentration-dependently reducing”.

And the Indole strength (indole odor)?
Its Indole strength is 3.3.

Which “Response in the Mock test” value [2] does the source give for `Cc1c[nH]c2ccccc12` [skatole] here?
The value was “no response”.

And the “Response of the olfactory receptor OR2L3 (Fold Increase)” value (“Response … (Fold Increase)” for short) (olfactory receptor OR2L3 [3])?
The value was “concentration-dependent responses”.

With `CCCCCCOC(=O)c1ccccc1O` [Hexyl salicylate, hexyl salicylate, reference compound] as the compound, how does the Skatole strength (skatole odor) read?
Its Skatole strength is 6.9.

What about the “Effect … to skatole” value (olfactory receptor OR2L3 [1]) of the same compound?
The value was “did not suppress”.

What about the Indole strength (indole odor) of the same compound?
The Indole strength was 6.7.

What does the source list for `CC(=CCC1CC=C(C)C1(C)C)CO` (stereo not shown) [2-methyl-4-(2,2,3-trimethyl-3-cyclopentenyl)-2-buten-1-ol]?
Skatole strength (skatole odor): 3.6; Effect of suppressing the unpleasant odors (in words) (skatole odor; sensory evaluation): suppress; Effect of suppressing the response of OR2L3 to indole (olfactory receptor OR2L3 [1]): concentration-dependently reducing; Effect of suppressing the response of OR2L3 to skatole (olfactory receptor OR2L3 [1]): concentration-dependently reducing; Indole strength (indole odor): 4.1

Which Skatole strength (skatole odor) does the source give for `CC(C)(C)C1CCC(O)CC1` (stereo not shown) [4-t-butyleyclohexanol, 4-t-butylcyclohexanol, reference compound] here?
The Skatole strength was 6.3.

What about the “Effect … to skatole” value (olfactory receptor OR2L3 [1]) of the same compound?
Its value is “did not suppress”.

And the Indole strength (indole odor)?
Its Indole strength is 6.0.

What does the source list for `CC1CCC(C(C)(C)S)C(=O)C1` (stereo not shown) [p-mentha-8-thio1-3-one, p-mentha-8-thiol-3-one]?
Skatole strength (skatole odor): 3.9; Effect of suppressing the unpleasant odors (in words) (skatole odor; sensory evaluation): suppress; Indole strength (indole odor): 3.7

How did the “Response in the Mock test” value [2] turn out when `c1ccc2[nH]ccc2c1` [indole] was run?
The value was “no response”.

What about the “Response … (Fold Increase)” value (olfactory receptor OR2L3 [3]) of the same compound?
The value was “concentration-dependent responses”.

How did the “Response in the Mock test” value [2] turn out when `CC1=CCC(O)(C(C)C)CC1` (stereo not shown) [4-terpineol] was run?
The value was “no response”.

What about the “Response … (Fold Increase)” value (olfactory receptor OR2L3 [3]) of the same compound?
Its value is “concentration-dependent responses”.

`CCCC(O)CCC1C(C)CCCC1(C)C` (stereo not shown) [1-(2,2,6-trimethylcyclohexyl)hexan-3-ol] was tested. Which Skatole strength (skatole odor) did it give?
The Skatole strength was 4.0.

And the “Effect … (in words)” value (skatole odor; sensory evaluation)?
The value was “suppress”.

And the “Effect of suppressing the response of OR2L3 to indole” value (olfactory receptor OR2L3 [1])?
The value was “concentration-dependently reducing”.

What about the “Effect … to skatole” value (olfactory receptor OR2L3 [1]) of the same compound?
The value was “concentration-dependently reducing”.

And the Indole strength (indole odor)?
Its Indole strength is 3.9.

With `CC(c1ccccc1)C1CC1C(C)(C)O` (stereo not shown) [Dimethyl-2-(1-phenylethyl)cyclopropylmethanol] as the compound, how does the Skatole strength (skatole odor) read?
Its Skatole strength is 2.5.

And the “Effect … (in words)” value (skatole odor; sensory evaluation)?
Its value is “suppress”.

And the Indole strength (indole odor)?
Its Indole strength is 2.4.

Which results are given for Methyl fenchol?
Skatole strength (skatole odor): 3.3; Suppression of the strength of skatole odor (in words) (skatole odor; sensory evaluation): significantly suppressed; Effect of suppressing the response of OR2L3 to skatole (olfactory receptor OR2L3 [1]): suppresses; Indole strength (indole odor): 3.1; Suppression of the strength of indole odor (in words) (indole odor; sensory evaluation): suppressed

With `CC(=O)c1ccc(C)cc1` [p-methylacetophenone] as the compound, how does the “Response in the Mock test” value [2] read?
Its value is “no response”.

And the “Response … (Fold Increase)” value (olfactory receptor OR2L3 [3])?
Its value is “concentration-dependent responses”.

`O=C1CCCC=CCCCCCCCCCC1` [5-cyclohexadecenone] was tested. Which Skatole strength (skatole odor) did it give?
Its Skatole strength is 4.2.

What about the “Effect … (in words)” value (skatole odor; sensory evaluation) of the same compound?
The value was “suppress”.

And the Indole strength (indole odor)?
Its Indole strength is 3.6.

How did the “Response in the Mock test” value [2] turn out when `CC1=CCC(C(C)(C)O)CC1` (stereo not drawn) [α-terpineol] was run?
Its value is “no response”.

What about the “Response … (Fold Increase)” value (olfactory receptor OR2L3 [3]) of the same compound?
Its value is “concentration-dependent responses”.
